# Test results published in patent US20230116703A1, “NOVEL ERGOLINES AND METHODS OF TREATING MOOD DISORDERS” (priority 2021, published 2023).
# Where two headings read alike, the source gives them in different places.
# Tests used:
# [1] = Metabolic stability in rat liver microsomes (RLM); details: for t1/2: RLM, 0.50 mg protein per mL
# [2] = Metabolic stability in mouse liver microsomes (MLM); format: in vitro ADME; details: 0.50 mg protein per mL; for t1/2: MLM (CD-1), 1 μM
# Text: MLM Stability Pooled MLM from CD-1 mice (BIOIVT M00501) were used.
# human 5-HT2C receptor = target: T1, human 5-HT2C receptor (Homo sapiens, UniProt P28335); assay: cell-based; details: Ca^2+ flux, agonist
# T1 sequence (P28335 33-458): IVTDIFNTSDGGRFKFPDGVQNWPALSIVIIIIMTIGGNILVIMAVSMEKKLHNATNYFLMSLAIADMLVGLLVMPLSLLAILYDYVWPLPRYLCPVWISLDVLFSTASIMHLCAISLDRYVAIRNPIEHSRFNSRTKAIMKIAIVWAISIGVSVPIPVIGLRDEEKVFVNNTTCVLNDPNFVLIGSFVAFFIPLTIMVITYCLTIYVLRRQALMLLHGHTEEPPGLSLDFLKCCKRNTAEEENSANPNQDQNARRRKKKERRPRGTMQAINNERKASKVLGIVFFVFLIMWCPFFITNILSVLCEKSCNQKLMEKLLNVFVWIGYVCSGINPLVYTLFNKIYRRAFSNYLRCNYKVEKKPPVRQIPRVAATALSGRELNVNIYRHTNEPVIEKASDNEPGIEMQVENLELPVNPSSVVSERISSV
# [3] = Metabolic stability in human liver microsomes (HLM); format: in vitro ADME; details: for t1/2: 1 μM, 0.50 mg protein per mL
# Text: HLM Stability. Pooled HLM from adult male and female donors (Corning 452117) were used.
# 5-HT2A receptor [4] = target: T2, 5-HT2A receptor (Homo sapiens, UniProt P28223); assay: cell-based; format: cell-based; details: Ca^2+ flux, agonist; read-out: 5-HT2A EC50
# T2 construct: host or cells: HEK293
# T2 sequence (P28223 whole entry): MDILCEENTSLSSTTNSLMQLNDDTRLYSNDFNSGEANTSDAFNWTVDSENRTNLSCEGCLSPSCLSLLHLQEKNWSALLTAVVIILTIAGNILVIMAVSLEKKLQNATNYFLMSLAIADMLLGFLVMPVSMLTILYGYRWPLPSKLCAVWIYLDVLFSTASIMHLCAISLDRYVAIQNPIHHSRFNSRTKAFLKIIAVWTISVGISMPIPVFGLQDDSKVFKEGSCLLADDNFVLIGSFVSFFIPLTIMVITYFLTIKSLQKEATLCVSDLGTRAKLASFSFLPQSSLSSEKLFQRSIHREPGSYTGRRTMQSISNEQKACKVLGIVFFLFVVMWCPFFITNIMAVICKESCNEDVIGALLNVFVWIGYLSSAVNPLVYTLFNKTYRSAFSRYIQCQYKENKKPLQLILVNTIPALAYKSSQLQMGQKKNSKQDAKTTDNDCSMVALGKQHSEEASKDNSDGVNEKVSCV
# 5-HT2A receptor [5] = target: T2, 5-HT2A receptor; assay: biochemical; format: binding; details: 1 nM [^3H]ketanserin, HEK293 stable cell line; read-out: 5-HT2A Receptor Ki (nM) ([^3H]ketanserin)
# Summary of the method: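 Binding affinity comes from a [^3H]ketanserin radioligand assay run under literature-adapted conditions.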
# 5-HT2A receptor [6] = target: T2, 5-HT2A receptor; assay: PathHunter beta-arrestin recruitment assay at 5-HT2A; format: cell-based
# Protocol: The degree of arrestin bias varied substantially across the other compounds tested as well.
# Arrestin Functional Assay at 5-HT2A. Recruitment of beta-arrestin was determined using a PathHunter assay at Eurofins DiscoverX (Fremont, Calif.) according to their standard protocols. PathHunter GPCR beta-arrestin assays take advantage of DiscoverX's proprietary Enzyme Fragment Complementation technology. The GPCR is fused in frame with a small enzyme donor fragment ProLink™ (PK) and co-expressed in cells stably expressing a fusion protein of beta-arrestin and the larger, N-terminal deletion mutant of beta-galactosidase. Activation of the GPCR (5-HT2A receptor in this case) stimulates binding of beta-arrestin to the PK-tagged GPCR and forces complementation of the two enzyme fragments, resulting in the formation of an active beta-galactosidase enzyme. This interaction leads to an increase in enzyme activity that can be measured using chemiluminescent PathHunter Detection Reagents. Briefly, PathHunter cells expressing 5-HT2A receptors were seeded in a volume of 20 μL into 384-well plates and incubated at 37° C. for the appropriate time prior to testing. […] Plates were then imaged on a microplate reader and the agonist activity was calculated using the following formula: % Activity=100%×(mean RLU of test sample−mean RLU of vehicle control)/(mean MAX control ligand−mean RLU of vehicle control), where RLU=relative light units.
# 5-HT1A receptor = target: T3, 5-HT1A receptor (Homo sapiens, UniProt P08908); assay: cell-based
# T3 construct: host or cells: CHO cells
# T3 sequence (P08908 1-422): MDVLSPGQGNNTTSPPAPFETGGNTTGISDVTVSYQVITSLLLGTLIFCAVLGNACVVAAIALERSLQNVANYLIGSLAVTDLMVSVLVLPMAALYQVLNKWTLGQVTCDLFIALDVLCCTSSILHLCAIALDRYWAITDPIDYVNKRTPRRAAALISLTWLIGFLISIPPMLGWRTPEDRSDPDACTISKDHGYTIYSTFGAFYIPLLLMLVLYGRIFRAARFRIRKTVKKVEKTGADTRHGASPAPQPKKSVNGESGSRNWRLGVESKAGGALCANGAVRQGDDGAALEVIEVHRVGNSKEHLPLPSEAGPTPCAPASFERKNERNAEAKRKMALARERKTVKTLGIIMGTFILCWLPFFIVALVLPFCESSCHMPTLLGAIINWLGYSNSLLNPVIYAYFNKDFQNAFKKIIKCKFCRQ
# 5-HT2B receptor = target: T4, 5-HT2B receptor (Homo sapiens, UniProt P41595); assay: cell-based; details: Ca^2+ flux, agonist; read-out: 5-HT2B EC50
# T4 construct: host or cells: HEK293
# T4 sequence (P41595 whole entry): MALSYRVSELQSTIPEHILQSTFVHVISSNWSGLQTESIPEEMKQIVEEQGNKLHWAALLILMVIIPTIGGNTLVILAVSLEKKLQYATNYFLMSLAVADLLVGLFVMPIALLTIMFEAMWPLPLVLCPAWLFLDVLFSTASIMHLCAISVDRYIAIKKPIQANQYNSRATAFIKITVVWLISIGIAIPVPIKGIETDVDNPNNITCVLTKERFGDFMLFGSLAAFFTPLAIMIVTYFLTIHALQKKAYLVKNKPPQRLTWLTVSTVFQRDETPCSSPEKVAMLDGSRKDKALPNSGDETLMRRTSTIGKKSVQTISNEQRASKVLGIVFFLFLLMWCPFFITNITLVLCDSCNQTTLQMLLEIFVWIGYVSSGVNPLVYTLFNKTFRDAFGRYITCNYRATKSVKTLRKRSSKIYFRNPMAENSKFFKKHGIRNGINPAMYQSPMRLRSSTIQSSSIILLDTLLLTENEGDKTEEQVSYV
# C57BL/6 mice = assay: Head twitch response (HTR) in mice; format: in vivo, mouse; details: mouse HTR, SC
# Protocol: Agonists of the 5-HT2A receptor are well known to induce this effect in rodents and the potency of this HTR is correlated with hallucinogenic potency in humans.
# Animals. Adult male C57BL/6 mice, aged 6-8 weeks (body weight 20-25 g) were used in this experiment. Animals were housed under controlled temperatures and 12-hour light/dark cycles (lights on between 07:00-19:00 h), with ad libitum food and water. This study was carried out in strict accordance with the requirements of the Committee for the Purpose of Control and Supervision of Experiments on Animals (CPCSEA), India. All efforts were made to minimize suffering.
# Drugs and Drug Administration. Compound 1 was synthesized as described above. It was administered subcutaneously (SC) dissolved in saline vehicle at a volume of 10 mL/kg. Five doses were tested, with n=6 animals/group. Doses were calculated on the basis of the freebase.
# Procedure. Mice were administered one dose of the drug and immediately placed into a small open field for behavioral observation. Animals were observed continuously for 20 mins and the number of head twitches (HTs) were counted by an observer blind to the treatment condition.
# Statistical Analysis. The data points shown are the mean±standard error of the mean (SEM). Analysis was performed using GraphPad Prism 6. Curves were fit using a non-linear gaussian distribution to calculate ED50 and Emax values.
# Additional disclosed compounds were tested in the mouse head twitch response (HTR) assay according to the procedure described in Example 43. […] Lastly, compounds with much larger benzyl and phenethyl substituents on the amine nitrogen (e.g., 10 and 11) were low efficacy in this assay, consistent with their lower maximal efficacy in the arrestin functional assay (see Example 41).
# [7] = both, rat, pooled rat liver microsomes, pH 7.4
# [8] = mouse, pooled mouse liver microsomes, pH 7.4, MLM (CD-1)
# [9] = both sexes, human, pooled human liver microsomes, pH 7.4, 0.50 mg protein per mL
# [10] = Ca^2+ flux, agonist, read-out: 5-HT1A EC50
Structure (SMILES),t1/2 [1] [min],"microsomal CLint at 1 μM [1, 7] [µL/min/mg]",t1/2 [2] [min],"microsomal CLint at 1 μM [2, 8] [µL/min/mg]",EC50 (human 5-HT2C receptor) [µM],t1/2 [3] [min],"microsomal CLint at 1 μM [3, 9] [µL/min/mg]",EC50 (5-HT2A receptor [4]) [µM],Ki (5-HT2A receptor [5]) [nM],EC50 (5-HT2A receptor [6]) [µM],EC50 (5-HT1A receptor; [10]) [µM],EC50 (5-HT2B receptor) [µM],"half-life at 1 μM [1, 7] [min]","half-life at 1 μM [2, 8] [min]","half-life at 1 μM [3, 9] [min]","ED50 (C57BL/6 mice; 20 min, 20 min observation, curve fit, poor in some cases, read-out: ED50 (95% CI)) [mg/kg]",Most Efficacious Dose (C57BL/6 mice) [mg/kg],"Emax (95% CI) (C57BL/6 mice; 20 min observation, curve fit, poor in some cases)",agonist type in arrestin recruitment assay (in words) (5-HT2A receptor [6]; 5-HT2A beta-arrestin),EC50 (5-HT1A receptor) [µM]
"CCN(CC)C(=O)[C@H]1C=C2c3cccc4[nH]cc(c34)C[C@H]2N(CCCF)C1 [Compound 2a, (6aR,9S)—N,N-diethyl-7-(3-fluoropropyl)-4,6,6a,7,8,9-hexahydroindolo[4,3-fg]quinoline-9-carboxamide]",9.673,143,1.776,780,0.256,17.018,81.4,0.169,115,0.0506,0.543,2.17,,,,,,,,
"CCCN1C[C@@H](C(=O)N[C@H](C)CC)C=C2c3cccc4[nH]cc(c34)C[C@H]21 [Compound 3a, (6aR,9S)—N—((R)-sec-butyl)-7-propyl-4,6,6a,7,8,9-hexahydroindolo[4,3-fg]quinoline-9-carboxamide]",1.4,960,0.6,2490,0.132,2.2,63.4,0.145,27.6,0.054,0.155,1.82,,,,,,,,
"CC[C@@H](C)NC(=O)[C@@H]1C=C2c3cccc4[nH]cc(c34)C[C@H]2N(CC)C1 [Compound 5, (6aR,9R)—N—((R)-sec-butyl)-7-ethyl-4,6,6a,7,8,9-hexahydroindolo[4,3-fg]quinoline-9-carboxamide]",,72,,170,0.00129,,62.3,0.000718,2.18,0.00192,0.00096,0.0354,19.3,8.1,22.2,0.0306,0.32,15.22 (11.77-19.03),full agonists,
"CC[C@@H](C)NC(=O)[C@H]1C=C2c3cccc4[nH]cc(c34)C[C@H]2N(CC)C1 [Compound 5a, (6aR,9S)—N—((R)-sec-butyl)-7-ethyl-4,6,6a,7,8,9-hexahydroindolo[4,3-fg]quinoline-9-carboxamide]",3.1,453,1.7,834,0.811,5.5,251,0.118,74.5,0.0668,0.131,2.51,,,,,,,,
"C=CCN1C[C@@H](C(=O)N[C@H](C)CC)C=C2c3cccc4[nH]cc(c34)C[C@H]21 [Compound 8a, (6aR,9S)-7-allyl-N—((R)-sec-butyl)-4,6,6a,7,8,9-hexahydroindolo[4,3-fg]quinoline-9-carboxamide]",1.7,835,0.8,1660,> 10,3.4,409,0.396,> 1230,1.18,1.56,3.59,,,,,,,,
"CC[C@@H](C)NC(=O)[C@H]1C=C2c3cccc4[nH]cc(c34)C[C@H]2N(C)C1 [Int8a, (6aR,9S)—N—((R)-sec-butyl)-7-methyl-4,6,6a,7,8,9-hexahydroindolo[4,3-fg]quinoline-9-carboxamide]",3.5,394,1.6,843,0.16,11.1,125,0.178,84.3,0.0193,0.163,> 10,,,,,,,,
"CCC(CC)NC(=O)[C@H]1C=C2c3cccc4[nH]cc(c34)C[C@H]2N(C)C1 [Int14a, (6aR,9S)-7-methyl-N-(pentan-3-yl)-4,6,6a,7,8,9-hexahydroindolo[4,3-fg]quinoline-9-carboxamide]",1.8,770,1.699,816,0.508,3.35,414,0.468,56.2,0.0357,,> 10,,,,,,,,1.55
"CCC[C@@H](C)NC(=O)[C@H]1C=C2c3cccc4[nH]cc(c34)C[C@H]2N(C)C1 [Int17a, (6aR,9S)-7-methyl-N—((R)-pentan-2-yl)-4,6,6a,7,8,9-hexahydroindolo[4,3-fg]quinoline-9-carboxamide]",1.961,707,1.576,880,0.962,4.578,303,0.425,41.3,0.0758,0.266,> 10,,,,,,,,
